What was measured:
UACC-62 = test: NCI 60 cell line panel: UACC-62; assay type: cell-based, human; conditions: Melanoma, TP53 wild type
From the text: (§1) Details of the NCI 60 One Dose Screen are well known and available online.

CAKI-1 = test: NCI 60 cell line panel: CAKI-1; assay type: cell-based, human; conditions: Renal cancer, TP53 wild type
From the text: as §1

[1] = nude mice; same schedule
Procedure: Three mice were placed in a dose group on the first day of treatment (Day 1). […] Animals were observed daily for mortality and moribundity. Body weights were measured daily starting on day 1.

A498 = test: NCI 60 cell line panel: A498; assay type: cell-based, human; conditions: Renal cancer, TP53 wild type
From the text: as §1

NCI-H226 = test: NCI 60 cell line panel: NCI-H226; assay type: cell-based, human; conditions: NSCL, TP53 null/mutant
From the text: as §1

TK-10 = test: NCI 60 cell line panel: TK-10; assay type: cell-based, human; conditions: Renal cancer, TP53 null/mutant
From the text: as §1

SF-268 = test: NCI 60 cell line panel: SF-268; assay type: cell-based, human; conditions: CNS cancer, TP53 null/mutant
From the text: as §1

SW-620 = test: NCI 60 cell line panel: SW-620; assay type: cell-based, human; conditions: Colon cancer, TP53 null/mutant
From the text: as §1

DNMT1 [2] = biological target: T1, DNMT1 (Homo sapiens, UniProt P26358); test: Western blot for DNMT1, THP-1 cells; assay type: cell-based; set-up: cytoplasmic and nuclear protein extracts from cells; endogenous in cells; host or cells: THP-1; conditions: 0.1 and 0.2 µM, 6 days after exposure
Procedure: (§2) Cells were co-stained with Annexin-V and PI on day 2 and analyzed by flow cytometry.
(§3) Approximately 100 µg of cytoplasmic and nuclear protein extracts from cells, together with molecular weight markers, were subjected to SDS-PAGE on 4–12% gradient gels (Invitrogen, Carlsbad, CA, USA) followed by transfer to polyvinylidene fluoride membranes (Invitrogen). Blots were probed using antibodies for DNMT1 (Abcam ab16632).

OVCAR-4 = test: NCI 60 cell line panel: OVCAR-4; assay type: cell-based, human; conditions: Ovarian cancer, TP53 null/mutant
From the text: as §1

DNMT1 [3] = biological target: T1, DNMT1; test: Western blot for DNMT1, Kasumi-1 cells; assay type: cell-based; set-up: cytoplasmic and nuclear protein extracts from cells; endogenous in cells; host or cells: Kasumi-1; conditions: 0.1 and 0.2 µM, 6 days after exposure
Procedure: as §2, §3

A549/ATCC = test: NCI 60 cell line panel: A549/ATCC; assay type: cell-based, human; conditions: NSCL, TP53 wild type
From the text: as §1

OVCAR-5 = test: NCI 60 cell line panel: OVCAR-5; assay type: cell-based, human; conditions: Ovarian cancer, TP53 wild type
From the text: as §1

786-0 = test: NCI 60 cell line panel: 786-0; assay type: cell-based, human; conditions: Renal cancer, TP53 null/mutant
From the text: as §1

RXF 393 = test: NCI 60 cell line panel: RXF 393; assay type: cell-based, human; conditions: Renal cancer, TP53 null/mutant
From the text: as §1

[4] = Hydrolysis of the 5-azacytosine base; assay type: physicochemical; conditions: data not shown
SK-OV-3 = test: NCI 60 cell line panel: SK-OV-3; assay type: cell-based, human; conditions: Ovarian cancer, TP53 null/mutant
From the text: as §1

PC-3 = test: NCI 60 cell line panel: PC-3; assay type: cell-based, human; conditions: Prostate cancer, TP53 null/mutant
From the text: as §1

MOLT-4 = test: NCI 60 cell line panel: MOLT-4; assay type: cell-based, human; conditions: Leukemia, TP53 null/mutant
From the text: as §1

CCRF-CEM = test: NCI 60 cell line panel: CCRF-CEM; assay type: cell-based, human; conditions: Leukemia, TP53 null/mutant
From the text: as §1

SNB-75 = test: NCI 60 cell line panel: SNB-75; assay type: cell-based, human; conditions: CNS cancer, TP53 null/mutant
From the text: as §1

SF-295 = test: NCI 60 cell line panel: SF-295; assay type: cell-based, human; conditions: CNS cancer, TP53 null/mutant
From the text: as §1

ACHN = test: NCI 60 cell line panel: ACHN; assay type: cell-based, human; conditions: Renal cancer, TP53 wild type
From the text: as §1

total DNMT = test: Total DNMT inhibition, colorimetric assay in HCT-116 cells; assay type: cell-based, human; conditions: 10 µM, 24 h
Procedure: Total DNMT activity was measured in the colon cancer cell line HCT-116. The assay was performed using the EpiQuick^TM DNA Methyltransferase Activity/Inhibition Assay Kit (Epigentek, Brooklyn, NY, USA). […] Assays were performed three times in triplicate.

[5] = tested on: TP53 WT colon cancer cell line LoVo; test: In vitro growth inhibition (CellTiter-Glo), LoVo; assay type: cell-based; conditions: Homo sapiens, 72 h exposure
Procedure: Further testing was performed in colon cancer cell lines.
Cells were grown in an appropriate medium for the cell line of interest; 96 well plates of each cell line were seeded with 5000 cells per well and left overnight. Drug exposed cells were incubated at 37 °C for 72 h. At the end of the 72 h exposure period, plates were removed for the CellTiter-Glo® assay. Luminescence was recorded on a Synergy 4.0. Assays were performed in triplicate.

T1 sequence (P26358 whole entry): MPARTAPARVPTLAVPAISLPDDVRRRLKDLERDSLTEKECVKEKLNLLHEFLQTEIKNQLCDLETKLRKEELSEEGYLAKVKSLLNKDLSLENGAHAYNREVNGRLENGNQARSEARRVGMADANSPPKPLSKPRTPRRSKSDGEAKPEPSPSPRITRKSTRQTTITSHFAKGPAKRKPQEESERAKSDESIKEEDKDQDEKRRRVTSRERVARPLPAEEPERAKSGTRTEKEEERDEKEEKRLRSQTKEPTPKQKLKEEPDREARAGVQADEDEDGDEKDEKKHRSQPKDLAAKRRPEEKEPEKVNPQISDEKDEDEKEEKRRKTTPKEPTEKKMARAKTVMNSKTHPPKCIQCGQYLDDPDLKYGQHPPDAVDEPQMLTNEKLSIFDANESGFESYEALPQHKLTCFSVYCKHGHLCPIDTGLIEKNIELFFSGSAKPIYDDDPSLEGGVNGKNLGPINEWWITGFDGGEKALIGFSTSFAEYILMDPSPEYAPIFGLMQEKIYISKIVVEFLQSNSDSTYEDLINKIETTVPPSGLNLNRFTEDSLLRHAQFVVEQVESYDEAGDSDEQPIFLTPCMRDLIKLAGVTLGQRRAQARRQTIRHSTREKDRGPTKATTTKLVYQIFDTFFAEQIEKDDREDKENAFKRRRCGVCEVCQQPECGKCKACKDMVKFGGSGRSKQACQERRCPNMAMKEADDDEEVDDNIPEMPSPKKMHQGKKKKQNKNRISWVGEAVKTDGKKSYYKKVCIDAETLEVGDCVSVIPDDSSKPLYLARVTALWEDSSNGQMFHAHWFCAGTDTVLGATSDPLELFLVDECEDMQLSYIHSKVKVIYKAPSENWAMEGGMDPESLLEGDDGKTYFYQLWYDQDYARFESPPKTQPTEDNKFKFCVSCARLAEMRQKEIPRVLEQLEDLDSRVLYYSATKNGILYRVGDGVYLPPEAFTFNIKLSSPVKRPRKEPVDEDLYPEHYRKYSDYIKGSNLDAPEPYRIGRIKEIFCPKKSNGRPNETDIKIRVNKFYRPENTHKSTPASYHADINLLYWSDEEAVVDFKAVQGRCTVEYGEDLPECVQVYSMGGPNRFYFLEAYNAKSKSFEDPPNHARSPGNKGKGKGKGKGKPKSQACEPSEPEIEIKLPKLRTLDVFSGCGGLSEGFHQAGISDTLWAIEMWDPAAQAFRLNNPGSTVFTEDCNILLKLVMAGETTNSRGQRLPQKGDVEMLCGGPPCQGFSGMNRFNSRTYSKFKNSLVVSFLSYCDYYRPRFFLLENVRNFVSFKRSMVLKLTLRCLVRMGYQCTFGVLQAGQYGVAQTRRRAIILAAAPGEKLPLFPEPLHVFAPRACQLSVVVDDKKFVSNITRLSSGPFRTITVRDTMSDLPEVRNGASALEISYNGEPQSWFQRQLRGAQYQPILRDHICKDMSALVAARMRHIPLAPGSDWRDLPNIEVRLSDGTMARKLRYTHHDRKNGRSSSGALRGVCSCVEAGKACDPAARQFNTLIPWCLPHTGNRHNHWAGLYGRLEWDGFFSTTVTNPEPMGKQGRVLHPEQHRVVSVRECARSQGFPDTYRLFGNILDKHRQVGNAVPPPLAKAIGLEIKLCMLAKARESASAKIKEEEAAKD

**Q.** Which results are given for Nc1ncn([C@@H]2O[C@H](CO)[C@@H](O)C2(F)F)c(=O)n1 [NUC013, 5-aza-2′,2′-difluroro deoxycytidine]?
**A.** Growth (%) at 10 µM (UACC-62): 47.29%; Growth (%) at 10 µM (CAKI-1): 27.86%; difference in MTD versus decitabine [1]: greater than 24 fold; Growth (%) at 10 µM (A498): 38.04%; Growth (%) at 10 µM (NCI-H226): 52.34%; Growth (%) at 10 µM (TK-10): 91.13%; Growth (%) at 10 µM (SF-268): 65.39%; Growth (%) at 10 µM (SW-620): 51.21%; DNMT1 inhibition by western blot (DNMT1 [2]): comparable to decitabine; Growth (%) at 10 µM (OVCAR-4): 94.88%; DNMT1 inhibition by western blot (DNMT1 [3]): weaker than decitabine; Growth (%) at 10 µM (A549/ATCC): 37.91%; Growth (%) at 10 µM (OVCAR-5): 86.95%; Growth (%) at 10 µM (786-0): 26.29%; Growth (%) at 10 µM (RXF 393): 44.97%; hydrolysis at the 6-position of the cytosine ring [4]: susceptible to hydrolysis; Growth (%) at 10 µM (SK-OV-3): 71.09%; Growth (%) at 10 µM (PC-3): 63.57%; Growth (%) at 10 µM (MOLT-4): 35.63%; Growth (%) at 10 µM (CCRF-CEM): 23.67%; Growth (%) at 10 µM (SNB-75): 64.95%; Growth (%) at 10 µM (SF-295): 77.93%; Growth (%) at 10 µM (ACHN): 7.28%; inhibition of total DNMT (total DNMT): 48.5%; GI50 [5]: 3000 nM

Source: PMC5620609 (Pharmaceuticals, 2017)
